Assay results taken from ChEMBL document CHEMBL1135342, “Synthesis and evaluation of thymidine-5'-O-monophosphate analogues as inhibitors of Mycobacterium tuberculosis thymidylate kinase” (Bioorg Med Chem Lett, 2002).

biological target: T1, Thymidylate kinase (Mycobacterium tuberculosis, UniProt P9WKE1); assay: Compound was tested for binding affinity against Mycobacterium tuberculosis thymidine monophosphate kinase
T1 sequence (P9WKE1 whole entry): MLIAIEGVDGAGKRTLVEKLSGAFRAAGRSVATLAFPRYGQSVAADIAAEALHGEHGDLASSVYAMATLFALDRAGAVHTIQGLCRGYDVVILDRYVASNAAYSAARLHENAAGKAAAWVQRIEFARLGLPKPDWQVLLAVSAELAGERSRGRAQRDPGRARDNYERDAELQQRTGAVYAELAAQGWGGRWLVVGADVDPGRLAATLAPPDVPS

`Cc1cn([C@@H]2O[C@H](COP(=O)(O)O)[C@@H](O)[C@H]2F)c(=O)[nH]c1=O` and `Cc1cn([C@@H]2O[C@H](COP(=O)(O)O)[C@@H](O)[C@H]2N)c(=O)[nH]c1=O` are within 1.5-fold of each other in Ki: 43 µM for the first, 55 µM for the second.

Compared with `Cc1cn([C@H]2C[C@H](N=[N+]=[N-])[C@@H](COP(=O)(O)O)O2)c(=O)[nH]c1=O` [AZIDOTHYMIDINE MONOPHOSPHATE], `Cc1cn([C@H]2C[C@H](N)[C@@H](COP(=O)(O)O)O2)c(=O)[nH]c1=O` is 24-fold higher in Ki: 10 µM for the first, 235 µM for the second.

`Cc1cn([C@@H]2O[C@H](COP(=O)(O)O)[C@@H](N)[C@H]2O)c(=O)[nH]c1=O` and `Cc1cn([C@@H]2O[C@H](COP(=O)(O)O)[C@@H](O)[C@H]2Cl)c(=O)[nH]c1=O` are within 1.5-fold of each other in Ki: 27 µM for the first, 19 µM for the second.
